Laboratory results taken from ChEMBL document CHEMBL5579793, “Design of cyclic peptides as novel inhibitors of ICOS/ICOSL interaction” (Bioorg Med Chem Lett, 2024).
pIC50, pKd: −log10 of the molar value. Active and inactive are the calls of the source. The rule behind the calls is not given here. Where a SMILES comes first, the peptide text is derived from it. Bridges are numbered along the chain shown (N, C = ends).

Key:
[1] = target: T1, ICOS-ICOSL (Homo sapiens) (UniProt O75144+Q9Y6W8); assay: (§1) Inhibition of ICOS/ICOSL (unknown origin) interaction by TR-FRET assay; format: protein assay
[2] = target: T1, ICOS-ICOSL (Homo sapiens); assay: (§2) Inhibition of ICOS/ICOSL (unknown origin) interaction by ELISA method; format: protein assay
[3] = target: T2, Inducible T-cell costimulator (Homo sapiens, UniProt Q9Y6W8); assay: Binding affinity to ICOS (unknown origin) assessed as dissociation constant
T2 sequence (Q9Y6W8 whole entry): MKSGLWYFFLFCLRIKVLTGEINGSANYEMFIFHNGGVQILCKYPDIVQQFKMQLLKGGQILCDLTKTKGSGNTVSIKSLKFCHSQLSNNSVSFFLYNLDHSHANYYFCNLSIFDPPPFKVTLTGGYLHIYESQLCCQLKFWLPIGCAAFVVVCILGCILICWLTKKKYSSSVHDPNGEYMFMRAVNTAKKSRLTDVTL

ICOS-ICOSL [4] = target: T3, ICOS-ICOSL (Homo sapiens, UniProt O75144+Q9Y6W8); assay: as §1; format: protein assay
T3 sequence (O75144 whole entry): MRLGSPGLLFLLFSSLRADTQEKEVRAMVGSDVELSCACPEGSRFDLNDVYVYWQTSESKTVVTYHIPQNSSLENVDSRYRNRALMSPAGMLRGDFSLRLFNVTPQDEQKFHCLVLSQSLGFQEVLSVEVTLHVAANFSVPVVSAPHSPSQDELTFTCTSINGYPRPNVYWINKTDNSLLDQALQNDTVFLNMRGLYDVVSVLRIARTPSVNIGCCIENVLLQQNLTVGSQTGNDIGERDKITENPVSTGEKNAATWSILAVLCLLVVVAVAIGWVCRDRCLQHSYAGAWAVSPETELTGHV
T3 sequence (Q9Y6W8 whole entry): T2 sequence (Q9Y6W8 whole entry)

ICOS-ICOSL [5] = target: T3, ICOS-ICOSL; assay: as §2; format: protein assay
Homo sapiens [6] = species on record: Homo sapiens; assay: Inhibition of PD-1/PD-L1 (unknown origin) protein-protein interaction at 50 uM by TR-FRET assay
Homo sapiens [7] = species on record: Homo sapiens; assay: Inhibition of CTLA4/B-7 (unknown origin) protein-protein interaction at 50 uM by TR-FRET assay
Homo sapiens [8] = species on record: Homo sapiens; assay: Inhibition of LAG-3/FGL1 (unknown origin) protein-protein interaction at 50 uM by TR-FRET assay
Homo sapiens [9] = species on record: Homo sapiens; assay: Inhibition of VISTA/VSIG-3 (unknown origin) protein-protein interaction at 50 uM by TR-FRET assay
[10] = Stability of the compound in stimulated gastric fluid assessed as half life at pH 1.6; format: ADME; settings: simulated gastric fluid
[11] = Stability of the compound in stimulated intestinal fluid assessed as half life at pH 6.5; format: ADME; settings: simulated intestinal fluid
[12] = Stability in human plasma assessed as parent compound remaining measured after 2 hrs; format: ADME, cell-free; settings: read-out: Stability
[13] = Lipophilicity, log D of compound at pH 7.4 by shake-flask method; format: physicochemical; settings: buffer
[14] = Apparent permeability of the compound in human Caco-2 cells across apical to basolateral side; format: ADME, cell-based
[15] = Apparent permeability of the compound in human Caco-2 cells across basolateral to apical side; format: ADME, cell-based
[16] = Stability in rat liver microsomes assessed as half life; format: ADME, Microsome

| inhibition [1] | inhibition [2] | pKd [3] | pIC50 (ICOS-ICOSL [4]) | pIC50 (ICOS-ICOSL [5]) | inhibition (Homo sapiens [6]) | inhibition (Homo sapiens [7]) | inhibition (Homo sapiens [8]) | inhibition (Homo sapiens [9]) | half-life [10] | half-life [11] | remaining at 2 h [12] | logD [13] | Papp A→B [14] | Papp B→A [15] | half-life [16] | Structure (SMILES) |
| --- | --- | --- | --- | --- | --- | --- | --- | --- | --- | --- | --- | --- | --- | --- | --- | --- |
| inactive | inactive | 5.35 | – | – | – | – | – | – | – | – | – | – | – | – | – | CC[C@H](C)[C@@H]1NC(=O)[C@H](CO)NC(=O)[C@H](Cc2ccc(O)cc2)NC(=O)[C@H](Cc2ccc(O)cc2)NC(=O)[C@@H]2CSSC[C@H](NC(=O)[C@H](CC(C)C)NC(=O)[C@@H]3CCCN3C(=O)[C@@H]3CCCN3C1=O)C(=O)N[C@@H](CC(C)C)C(=O)N1CCC[C@H]1C(=O)N[C@@H](Cc1ccccc1)C(=O)NCC(=O)N[C@@H](CCCNC(=N)N)C(=O)N2 (cyclo(CLPFGRCYYSIPPL); disulfide 1-7) |
| – | inactive | – | 5.43 | – | – | – | – | – | – | – | – | – | – | – | – | CC(C)C[C@@H]1NC(=O)[C@H](Cc2ccccc2)NC(=O)[C@H](Cc2ccccc2)NC(=O)[C@@H]2CCCN2C(=O)[C@@H]2CCCN2C(=O)[C@H](Cc2ccc(O)cc2)NC(=O)[C@@H]2CCCN2C(=O)[C@H](C(C)C)NC(=O)[C@@H]2CCCN2C(=O)[C@H](Cc2ccc(O)cc2)NC(=O)[C@@H]2CSSC[C@H](NC1=O)C(=O)N[C@@H](CC(C)C)C(=O)N1CCC[C@H]1C(=O)N[C@@H](Cc1ccccc1)C(=O)N[C@@H](Cc1ccc(O)cc1)C(=O)N2 (cyclo(CLPFYCYPVPYPPFFL); disulfide 1-6) |
| – | – | 4.44 | 5.35 | 5.73 | inactive | inactive | inactive | inactive | 6.5 h | 20.4 h | 98.2% | 2.94 | 6.72 ×10⁻⁶ cm/s | 10.8 ×10⁻⁶ cm/s | 18.3 h | CC(C)C[C@H](NC(=O)[C@@H]1CSSC[C@H](NC(=O)[C@@H](N)Cc2ccc(O)cc2)C(=O)N[C@@H](Cc2ccc(O)cc2)C(=O)N2CCC[C@H]2C(=O)N[C@@H](C(C)C)C(=O)N2CCC[C@H]2C(=O)N[C@@H](Cc2ccc(O)cc2)C(=O)N2CCC[C@H]2C(=O)N2CCC[C@H]2C(=O)N[C@@H](Cc2ccccc2)C(=O)N[C@@H](Cc2ccccc2)C(=O)N[C@@H](CC(C)C)C(=O)N1)C(=O)N[C@@H](Cc1ccccc1)C(=O)N[C@@H](CC(N)=O)C(=O)O (H-YCYPVPYPPFFLCLFN-OH; disulfide 2-13) |
